#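 Grown in 96-well plates, cells were treated for 48 hours with each compound at five concentrations. Insufficient inhibition: endpoint recorded as highest concentration tested. The concentration for 50% growth inhibition is given as GI50.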 Active and inactive are the calls of the source. Cut-off read from the data, not from the text of the source: active = GI50 up to about 1.1 µM and inactive = higher.
# What was measured:
# Test in all cases: NCI-60 cell line screen, 48 h
# SK-MEL-5 = tested on: SK-MEL-5
# SF-268 = tested on: SF-268
# OVCAR-5 = tested on: OVCAR-5
# RXF 393 = tested on: RXF 393
# UO-31 = tested on: UO-31
# A549 = tested on: A549
# M14 = tested on: M14
# CCRF-CEM = tested on: CCRF-CEM
# HCT-15 = tested on: HCT-15
# SF-295 = tested on: SF-295
# A498 = tested on: A498
# SNB-75 = tested on: SNB-75
# HOP-62 = tested on: HOP-62
# SF-539 = tested on: SF-539
# NCI-H522 = tested on: NCI-H522
# SK-OV-3 = tested on: SK-OV-3
# HL-60 = tested on: HL-60
# UACC-257 = tested on: UACC-257
# RPMI-8226 = tested on: RPMI-8226
# IGROV-1 = tested on: IGROV-1
structure (smiles),measurement,setting,value
C=CCN1/C(=C(\C#N)c2nc3ccccc3[nH]2)Sc2c1nc[nH]c2=O,GI50,SK-MEL-5,> 100 µM (inactive)
same,GI50,SF-268,> 100 µM (inactive)
same,GI50,OVCAR-5,> 100 µM (inactive)
same,GI50,RXF 393,6.68 µM (inactive)
same,GI50,UO-31,> 100 µM (inactive)
same,GI50,A549,> 100 µM (inactive)
same,GI50,M14,> 100 µM (inactive)
same,GI50,CCRF-CEM,> 100 µM (inactive)
same,GI50,HCT-15,> 100 µM
same,GI50,SF-295,> 100 µM (inactive)
same,GI50,A498,> 100 µM (inactive)
same,GI50,SNB-75,31.4 µM (inactive)
same,GI50,HOP-62,> 100 µM (inactive)
same,GI50,SF-539,> 100 µM (inactive)
same,GI50,NCI-H522,> 100 µM (inactive)
same,GI50,SK-OV-3,> 100 µM (inactive)
same,GI50,HL-60,> 100 µM (inactive)
same,GI50,UACC-257,> 100 µM (inactive)
same,GI50,RPMI-8226,> 100 µM (inactive)
same,GI50,IGROV-1,> 100 µM (inactive)

# From ChEMBL document CHEMBL1201862, “PubChem BioAssay data set” (2004)
